# Results published in patent US20180110742A1, “NMDA ANTAGONISTS FOR THE TREATMENT OF MENTAL DISORDERS WITH OCCURRENCE OF […]/OR IMPULSIVE BEHAVIOR” (ICM (INSTITUT DU CERVEAU ET DE LA MOELLE EPINIERE), priority 2015, published 2018).
# What was measured:
# [1] = higher doses, e.g. 0.6 mg/kg; cited from earlier work
# rhesus monkeys = assay: Delayed saccade oculomotor paradigm (inhibition of premature saccades) after i.m. ketamine or saline; type: in vivo, rhesus monkey
# Excerpt: FIG. 2 is a diagram showing the sequence of events. The trial started with the appearance of a fixation cross for a randomized duration followed by the appearance of two empty ‘boxes’, one at the center of the screen and at a 9-deg eccentric position. After the appearance of the two boxes, a target was flashed in the central one for 50 milliseconds. Extinction of the central target marked the beginning of the delay period that could last either 400, 900, 1400 or 1900 ms. At the end of the delay period, a target appeared for 50 ms in the eccentric box and the subject had to make a saccade to the eccentric box within a 400 ms grace period.
# The experimental paradigm was designed to create a conflict between the urge to make a saccade to the peripheral box and the necessity to maintain fixation until the eccentric target appeared (FIG. 2). This required a strong inhibition of premature saccades before the appearance of the eccentric target.
# A total of 14104 saccades were analyzed in the three monkeys of the present study (L, S, Y). […] Positive values represent saccades occurring after target onset. We classified saccades as visually-guided for latencies longer than 100 ms. Latencies shorter than 100 ms represent premature (anticipatory) saccades. It can be observed that in the control condition (dashed curve on FIG. 3A), average saccadic latencies tended on average to decrease with increasing delay duration, more premature saccades occurring during long delays. […] However, a significant interaction between injected product (placebo or ketamine) and delay duration was found (F3; 6.012=8.195; P=0.015). […] Saccades in short delay trials (400 or 900 ms delays) were less affected than saccades when the delay was longer (1400 or 1900 ms). This influence of ketamine on movement latency was reproducible between monkeys.
# Three monkeys participated in the present study (referred to as L, S, Y). Apparatus
# Subjects sat in darkness, facing a CRT screen, which presented stimuli at a frequency of 60 Hz. An EyeLink 1000 infrared eye tracking system (SR Research, Mississauga, Ontario) was used to record movements of the right eye at 1 KHz. All experiments were run with homemade stimulus generation software based on a real time Linux kernel (Xenomaï). Stimulus display and oculomotor data collection were synchronized on a frame-by-frame basis. Saccades were detected offline in MATLAB (MathWorks, Natic, Mass.) with a velocity threshold of 30 deg/sec.
# Each trial started with an initial fixation period (referred to as ‘initial fixation’), with a small cross (0.7 deg) appearing on the CRT screen for a random duration (850±100 ms; see ‘X’ on FIG. 1). At the end of this random delay, two empty square ‘boxes’ appeared on the screen (1.4×1.4 deg), one in the center of the screen and one 9 deg eccentric, randomly to the right or to the left. […] Afterwards, a square target (1.4×1.4 deg) was flashed in the central box for 50 ms. Extinction of the initial target indicated to subjects the beginning of the delay period. Subjects were required to hold on fixation of the central box until another target (1.4×1.4 deg) was briefly presented for 50 ms in the eccentric box. In the variable fore period design, the delay period could take one of 4 different values with the same probability: 400 ms, 900 ms, 1400 ms and 1900 ms. In order to receive reward, subjects had to maintain fixation of the central box and wait for the appearance of the eccentric target. This required a strong inhibition of early saccades before the appearance of the eccentric target. Early saccades were not rewarded. This paradigm was designed to test inhibition during the delay period.
# Each experimental session started with a block of 200 trials before injection to measure the baseline saccadic latency on a day-by-day basis. On a randomly selected day ketamine (0.250 mg/kg) was injected i.m. or a placebo saline solution (NaCl 0.9%) of the same volume (0.3 ml). […]
# [2] = test system: supplementary eye field (SEF) neurons; assay: Single-neuron recordings of saccade-related and fixation neurons during the saccade task; type: in vivo, rhesus monkey; details: 0.25 mg/kg i.m.; for average neuronal activity of fixation units/neurons: delay and saccadic period, 0.25 mg/kg
# Excerpt: FIG. 9 is a graph showing the average neuronal activity (spike density) of 30 movement-related supplementary eye field (SEF) neurons during fixation (negative time), delay (between the two vertical dashed lines) and after saccade appearance (after the second dashed lined). Group data. A: delay duration: 400 ms. B: delay duration: 900 ms. C: delay duration: 1400 ms. D: delay duration: 1900 ms. […] This can be associated with the decrease of premature saccades.
# FIG. 10 is a graph showing the average neuronal activity of “fixation” units during fixation, delay and saccadic period. Group data. A: delay duration: 400 ms. B: delay duration: 900 ms. C: delay duration: 1400 ms. D: delay duration: 1900 ms. […] This could be related to the enhanced inhibition capacity and reduction of impulsive behavior observed.
# Neuronal activity of two animals was recorded on neurons with phasic discharge during the saccade (saccadic-relayed neurons, FIG. 9) and neurons with tonic activity when the eye is immobile (fixation neurons, FIG. 10). Average activity of 30 neurons is shown in the control condition (no ketamine) and after injection of 0.25 mg/kg ketamine i.m.
# One male and one female rhesus monkey were used in this study. All procedures were approved by the Institutional Animal Care and Use Committee and were in compliance with the guidelines set forth in the United States Public Health Service Guide for the Care and Use of Laboratory Animals.
# A celux recording chamber (Crist Instruments, Hagerstown, Md.) was positioned at 24 mm anterior in Horsley-Clark stereotaxic coordinates and centered on the midline of the brain in both monkeys. At the completion of the surgeries, animals were returned to their home cages. Antibiotics and analgesics were administered as needed during the recovery period under the direction of a veterinarian.
# The monkeys were seated in a primate chair with their head restrained for the duration of the testing sessions. They were trained to execute the behavioral task described above for liquid reward and were allowed to work to satiation. Records of each animal's weight and health status were kept, and supplemental water was given as necessary. The monkeys had their heads immobilized and were trained to pursue spots of light projected on a tangent screen in front of them.
# To record neuronal activity, a single tungsten microelectrode (FHC, Bowdoinham, Me.) of approximately 6 MΩ impedance at 1 kHz was lowered into the cortex through the dura using a Narishige microdrive. The position of the electrode was determined using a grid system (Crist et al., 1988). Action potentials of single units were isolated using an on-line spike-sorting system that uses a template-matching algorithm (Plexon Inc). A pulse was generated each time an action potential was detected and stored with a 1 ms resolution.
# To analyze the time course of neuronal activity, spike trains were convolved with a Gaussian probability density in steps of 1 ms to generate the spike-density function (Richmond et al., 1987). The SD of the Gaussian function was set to 20 ms. The average spike density in each experimental condition was computed from all trials in which subjects pursued the target until the end of its trajectory.
# [3] = Total of monkeys L, S, Y, 0.25 mg/kg i.m.
smiles,measurement,setting,value
CNC1(c2ccccc2Cl)CCCCC1=O (stereo not drawn) [ketamine],spontaneous nystagmus or centripetal drift of the eye,[1],could be observed with higher doses
same,spontaneous nystagmus or centripetal drift of the eye,rhesus monkeys; 0.25 mg/kg,did not evoke spontaneous nystagmus or centripetal drift of the eye
same,latency variance,"rhesus monkeys; 0.25 mg/kg i.m., as a function of delay duration",latency variance decreased
same,reduction of premature saccades by delay duration,"rhesus monkeys; 0.25 mg/kg i.m., delay durations 400-1900 ms",particularly strong for long delay durations (1400 ms and 1900 ms)
same,saccadic latency as a function of delay duration,"rhesus monkeys; 0.25 mg/kg i.m., delays 400, 900, 1400, 1900 ms, group data",prolonged saccadic latencies differently with increasing delay duration
same,saccadic latency (all saccades),"rhesus monkeys; 0.25 mg/kg i.m., group data of three monkeys, two blocks of trials following injection",altered saccadic latency
same,number of premature saccades,"rhesus monkeys; 0.25 mg/kg i.m., group data, vs saline",strongly and significantly reduced
same,average premature saccade latency,"rhesus monkeys; 0.25 mg/kg i.m., saccades with latency <100 ms, group data",not affected
same,Premature saccades (number),"rhesus monkeys; Monkey L, 0.25 mg/kg i.m.",408
same,Premature saccades (percentage of total),"rhesus monkeys; Monkey L, 0.25 mg/kg i.m.",(21%)
same,Visually guided saccades (number),"rhesus monkeys; Monkey L, 0.25 mg/kg i.m.",1520
same,Visually guided saccades (percentage of total),"rhesus monkeys; Monkey L, 0.25 mg/kg i.m.",(79%
same,saccade amplitude,"rhesus monkeys; Monkey L, 0.25 mg/kg i.m., control 5.7±0.05 deg",5.2±0.05 deg
same,decrease of the proportion of valid trials,"rhesus monkeys; Monkey L, after ketamine injection 0.25 mg/kg i.m.",~5%
same,Premature saccades (number),"rhesus monkeys; Monkey S, 0.25 mg/kg i.m.",21
same,Premature saccades (percentage of total),"rhesus monkeys; Monkey S, 0.25 mg/kg i.m.",(7%)
same,Visually guided saccades (number),"rhesus monkeys; Monkey S, 0.25 mg/kg i.m.",2939
same,Visually guided saccades (percentage of total),"rhesus monkeys; Monkey S, 0.25 mg/kg i.m.",(93%)
same,increase of the proportion of valid trials,"rhesus monkeys; Monkey S, after ketamine injection 0.25 mg/kg i.m.",~10%
same,Premature saccades (number),"rhesus monkeys; Monkey Y, 0.25 mg/kg i.m.",150
same,Premature saccades (percentage of total),"rhesus monkeys; Monkey Y, 0.25 mg/kg i.m.",(6%)
same,Visually guided saccades (number),"rhesus monkeys; Monkey Y, 0.25 mg/kg i.m.",2537
same,Visually guided saccades (percentage of total),"rhesus monkeys; Monkey Y, 0.25 mg/kg i.m.",(94%)
same,saccade amplitude,"rhesus monkeys; Monkey Y, 0.25 mg/kg i.m., control 5.7±0.03 deg",6.2±0.04 deg
same,proportion of valid trials,"rhesus monkeys; Monkey Y, after ketamine injection 0.25 mg/kg i.m.",unchanged
same,premature saccades after single injection (saccadic latency vs trial number),"rhesus monkeys; Monkey Y, single injection",sharp decrease of premature saccades
same,trials after injection until the number of early anticipatory saccades was strongly reduced,"rhesus monkeys; Monkey Y, single injection 0.25 mg/kg i.m.",Approximately 100 trials
same,return of premature saccades frequency to control levels,"rhesus monkeys; Monkey Y, single injection 0.25 mg/kg i.m., blocks of 200 trials",Only during the third block following injection
same,trials until cumulated sums of latencies of control and ketamine diverged,"rhesus monkeys; Monkeys Y and L, 13 injections, 0.25 mg/kg i.m.",approximately 75 trials
same,Premature saccades (number),rhesus monkeys; [3],579
same,Visually guided saccades (number),rhesus monkeys; [3],6996
same,time for ketamine to affect saccade latency,"rhesus monkeys; after the onset of the second block of trials, single trial 3300 ms on average",approximately 4 minutes
same,average difference in the latency of visually-guided saccade between conditions,"rhesus monkeys; ketamine 0.25 mg/kg i.m. vs saline, saccades with latency >100 ms, group data",approx. 10 ms
same,"saccade amplitude, group data","rhesus monkeys; monkeys L and Y, 0.25 mg/kg i.m., 0.25 mg/kg",did not reduce saccade amplitude
same,"saccade amplitude, group data","rhesus monkeys; monkeys L and Y, 0.25 mg/kg i.m., listed as Ketamine, 0.25 mg/kg",modestly reduced saccadic amplitude
same,saccade amplitude changes,"rhesus monkeys; monkeys L and Y, ketamine vs control",~10%
same,"proportion of valid trials, group level","rhesus monkeys; three monkeys, 0.25 mg/kg i.m.",did not statistically alter the proportion of valid trials
same,activity of premotor saccadic neurons,[2]; two animals,decreases the activity of premotor saccadic neurons
same,average neuronal activity of movement-related SEF neurons after target appearance,[2]; 30 neurons,reduces activity after target appearance
same,average neuronal activity (spike density) of movement-related SEF neurons during the delay period,"[2]; 30 neurons, delays 400-1900 ms",reduces neuronal activity during the delay period
same,average neuronal activity of fixation units/neurons,[2],increases the activity of fixation neurons
same,average neuronal activity of fixation units/neurons,[2]; listed as Ketamine,"increased the fixation, delay and initial saccadic period"
